According to PubChem BioAssay (NCI):
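Five concentrations, 48 hours, 96-well plates. GI50 marks 50% less growth. At the TGI there is no net growth.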

Columns and labels:
Assay in all cases: NCI tumour cell line growth inhibition, 48 h
UO-31 renal = tested on: UO-31 renal
UACC-62 melanoma = tested on: UACC-62 melanoma
TK-10 renal = tested on: TK-10 renal
SK-OV-3 ovarian = tested on: SK-OV-3 ovarian
OVCAR-5 ovarian = tested on: OVCAR-5 ovarian
SK-MEL-5 melanoma = tested on: SK-MEL-5 melanoma
SNB-75 CNS = tested on: SNB-75 CNS
NCI-H460 lung = tested on: NCI-H460 lung
MDA-MB-435 = tested on: MDA-MB-435
MCF7 breast = tested on: MCF7 breast
NCI-H226 lung = tested on: NCI-H226 lung
786-0 renal = tested on: 786-0 renal
DU-145 prostate = tested on: DU-145 prostate
SF-539 CNS = tested on: SF-539 CNS
SK-MEL-2 melanoma = tested on: SK-MEL-2 melanoma
HS 578T breast = tested on: HS 578T breast
HOP-62 NSCLC = tested on: HOP-62 NSCLC
U251 CNS = tested on: U251 CNS
SF-268 CNS = tested on: SF-268 CNS
HCC-2998 colon = tested on: HCC-2998 colon
BT-549 breast = tested on: BT-549 breast
T-47D breast = tested on: T-47D breast
SK-MEL-28 melanoma = tested on: SK-MEL-28 melanoma
ACHN renal = tested on: ACHN renal
KM12 colon = tested on: KM12 colon
CCRF-CEM leukemia = tested on: CCRF-CEM leukemia
RXF 393 renal = tested on: RXF 393 renal
SNB-19 CNS = tested on: SNB-19 CNS
SN12C renal = tested on: SN12C renal
A549 NSCLC = tested on: A549 NSCLC
PC-3 prostate = tested on: PC-3 prostate
UACC-257 melanoma = tested on: UACC-257 melanoma
SF-295 CNS = tested on: SF-295 CNS
CAKI-1 renal = tested on: CAKI-1 renal
MDA-MB-231 breast = tested on: MDA-MB-231 breast

CC(=O)OC[C@H]1OC(O)C=C[C@@H]1OC(C)=O (stereo not given in full)
GI50 (UO-31 renal): 89.5 µM
TGI (UO-31 renal): 168 µM
GI50 (UACC-62 melanoma): 92 µM
TGI (UACC-62 melanoma): 176 µM
GI50 (TK-10 renal): 98.1 µM
TGI (TK-10 renal): 179 µM
GI50 (SK-OV-3 ovarian): 145 µM
TGI (SK-OV-3 ovarian): 407 µM
GI50 (OVCAR-5 ovarian): 95 µM
TGI (OVCAR-5 ovarian): 169 µM
GI50 (SK-MEL-5 melanoma): 89 µM
TGI (SK-MEL-5 melanoma): 161 µM
GI50 (SNB-75 CNS): 86.3 µM
TGI (SNB-75 CNS): 159 µM
GI50 (NCI-H460 lung): 155 µM
TGI (NCI-H460 lung): 488 µM
GI50 (MDA-MB-435): 82.4 µM
TGI (MDA-MB-435): 155 µM
GI50 (MCF7 breast): 23.5 µM
TGI (MCF7 breast): 123 µM
GI50 (NCI-H226 lung): 119 µM
TGI (NCI-H226 lung): 267 µM
GI50 (786-0 renal): 94.1 µM
TGI (786-0 renal): 178 µM
GI50 (DU-145 prostate): 71.6 µM
TGI (DU-145 prostate): 143 µM
GI50 (SF-539 CNS): 77.8 µM
TGI (SF-539 CNS): 155 µM
GI50 (SK-MEL-2 melanoma): 91.3 µM
TGI (SK-MEL-2 melanoma): 177 µM
GI50 (HS 578T breast): 107 µM
TGI (HS 578T breast): 263 µM
GI50 (HOP-62 NSCLC): 110 µM
TGI (HOP-62 NSCLC): 227 µM
GI50 (U251 CNS): 95.1 µM
TGI (U251 CNS): 187 µM
GI50 (SF-268 CNS): 109 µM
TGI (SF-268 CNS): 236 µM
GI50 (HCC-2998 colon): 91.7 µM
TGI (HCC-2998 colon): 171 µM
GI50 (BT-549 breast): 89.2 µM
TGI (BT-549 breast): 162 µM
GI50 (T-47D breast): 33.3 µM
TGI (T-47D breast): 161 µM
GI50 (SK-MEL-28 melanoma): 80.4 µM
TGI (SK-MEL-28 melanoma): 153 µM
GI50 (ACHN renal): 81.5 µM
TGI (ACHN renal): 151 µM
GI50 (KM12 colon): 93.9 µM
TGI (KM12 colon): 177 µM
GI50 (CCRF-CEM leukemia): 17.7 µM
TGI (CCRF-CEM leukemia): 89.8 µM
GI50 (RXF 393 renal): 96.8 µM
TGI (RXF 393 renal): 195 µM
GI50 (SNB-19 CNS): 91.1 µM
TGI (SNB-19 CNS): 170 µM
GI50 (SN12C renal): 88 µM
TGI (SN12C renal): 168 µM
GI50 (A549 NSCLC): 767 µM
TGI (A549 NSCLC): 2490 µM
GI50 (PC-3 prostate): 89.5 µM
TGI (PC-3 prostate): 170 µM
GI50 (UACC-257 melanoma): 87.1 µM
TGI (UACC-257 melanoma): 183 µM
GI50 (SF-295 CNS): 102 µM
TGI (SF-295 CNS): 198 µM
GI50 (CAKI-1 renal): 91.1 µM
TGI (CAKI-1 renal): 170 µM
GI50 (MDA-MB-231 breast): 87.7 µM
TGI (MDA-MB-231 breast): 183 µM
